In patent US5266599A, “Use of (+)-1-[(3,4,5-trimethoxy)-benzyloxymethyl]-1-phenyl-N,N-dimethyl-n-propy lamine to increase gastric discharge in a subject” (priority 1989, dated 1993):
“Also recorded” adds a separate entry of the source. Structures can show the parent of a compound that is named as a salt. Where two headings read alike, the source gives them in different places.

Columns and labels:
kappa receptor = target: T1, kappa receptor (Cavia porcellus, UniProt P41144); test: biochemical; conditions: CI50, inhibition of 50% of the binding of a specific radioactive ligand
T1 construct: from tissue

[1] = test system: abdominal cramps caused by acetic acid; test: Analgesic activity in vivo, abdominal cramps caused by intraperitoneal acetic acid (derived from Koster); parameters: species or system mice
delta receptor = target: T2, delta receptor (Cavia porcellus, UniProt A0A286XTF2); test: biochemical; conditions: CI50, inhibition of 50% of the binding of a specific radioactive ligand
T2 construct: from tissue

mu receptor = test: Binding affinity to opiate receptor mu (inhibition of binding of a specific radioactive ligand); conditions: for IC50: read-out: CI50, inhibition of 50% of the binding of a specific radioactive ligand, mu receptor
gastric discharge = conditions: in vivo; cited from earlier work
[2] = test system: opiate receptors of the gastric mucous membrane; test: Effect of the products on the gastric evacuation of solids in dogs; format: in vivo; conditions: for Variation in % of gastric evacuation of solids: oral capsule, one hour after meal; for effect on gastric discharge of solids (in words): one hour after administration
Protocol: The principle of the test consists in measuring the gastric content of the animals one hour after eating a meal comprising 400 g of solid matter with 21.7% dry matter composed of:
and 20 g of sheeps liver containing radiolabelled cyanocobalamine. The meal is consumed within about 5 minutes by the animals. After one hour, the gastric content is collected by means of a small tube placed approximately 10 cm into the pyloris before the experiment.
The collected sample is weighed and homogenized. Its radioactivity is measured and the amount of the gastric discharge expressed in percentage is calculated according to the formula: [formula] in which: […]
In practice, each test is carried out on three dogs and consists in administering to them, 20 minutes before eating the meal described above, a capsule containing the test product at a dose of […] per kg animal weight or a capsule placebo which serves to determine the control phenomenon of the discharge on the animal. The 3 dogs receive each treatment twice in random order. […] The meal is presented and ingested 20 minutes after the capsule containing the test product has been administered. The evacuation values of the solid phases are measured as described before and compared using the test of Mann and Whitney (U test). The difference in comparison with the control values is considered significant when p is<or =0.05.
The effect of the test products is objectivised by the percentage variation calculated according to the relation: [formula]

[3] = test system: opiate receptors of the kappa type in the gastric mucous membrane; conditions: dog, in vivo, cited from earlier work
duodenum of the rat = test: tissue or blood; format: cell-based; conditions: for IC50: Rattus norvegicus
[4] = test system: opiate receptors mu, delta and kappa; format: binding
[5] = Acute toxicity, oral, in male mice; format: in vivo; conditions: mouse, in vivo, po, fourteen days
Protocol: (§1) This toxicity has been studied orally in male mice. The test products have been administered at the rate of 2 ml of their aqueous solution per 100 g of animal weight. The animals are then observed for 3 hours after administration, then daily for fourteen days, when they are sacrificed and then an autopsy is carried out.
(§2) The LD50 (lethal doses which cause the death of 50% of the animals) have been calculated according to the method of Reed J. L. and Muench H. (Am. J. Hyg. 1939, 27, p. 493).

mice = test: Acute toxicity, oral, in male mice; format: in vivo
Protocol: as §1, §2

[6] = Solubility, hygroscopicity and stability of the addition salt; conditions: D-(-) tartaric acid salt
[7] = in vitro, compared with the (+) enantiomer or other receptors
[8] = mu receptor, racemates uncorrected

T1 sequence (P41144 whole entry): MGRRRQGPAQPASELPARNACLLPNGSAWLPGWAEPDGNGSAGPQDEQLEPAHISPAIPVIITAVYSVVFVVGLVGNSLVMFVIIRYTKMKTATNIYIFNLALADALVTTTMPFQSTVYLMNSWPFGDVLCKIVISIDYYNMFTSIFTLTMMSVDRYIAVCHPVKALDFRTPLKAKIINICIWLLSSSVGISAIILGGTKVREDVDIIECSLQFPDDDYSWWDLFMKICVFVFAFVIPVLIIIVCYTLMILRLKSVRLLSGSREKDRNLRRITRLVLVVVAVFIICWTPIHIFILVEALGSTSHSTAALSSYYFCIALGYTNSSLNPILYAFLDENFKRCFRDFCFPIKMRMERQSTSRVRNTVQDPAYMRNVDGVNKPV
T2 sequence (A0A286XTF2 1-366): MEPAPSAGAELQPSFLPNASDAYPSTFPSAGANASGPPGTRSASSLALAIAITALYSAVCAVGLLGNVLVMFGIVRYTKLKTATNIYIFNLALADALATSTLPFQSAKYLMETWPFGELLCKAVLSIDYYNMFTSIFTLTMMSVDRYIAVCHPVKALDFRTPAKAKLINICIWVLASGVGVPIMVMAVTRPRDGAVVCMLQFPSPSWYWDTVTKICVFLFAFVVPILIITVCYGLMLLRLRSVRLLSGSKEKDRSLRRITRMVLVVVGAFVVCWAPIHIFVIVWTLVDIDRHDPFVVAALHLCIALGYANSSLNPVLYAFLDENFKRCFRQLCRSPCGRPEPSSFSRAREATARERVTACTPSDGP

CCC(COCc1ccccc1)(c1ccccc1)N(C)C (racemic) [Ex. 3 of U.S. Pat. No. 4,301,163, (+/-)1-benzyloxymethyl-1-phenyl-N,N-dimethyl-n-propylamine]
IC50 (kappa receptor): 0.56 µM | % analgesia ([1]; 50 mg/kg, orally, mice): 27.6% | IC50 (delta receptor): 14.7 µM | mu receptor affinity (in words) (mu receptor; [7]): just as, if not more active | IC50 (mu receptor; [8]): 0.19 µM

CCN(CC)CCNC(=O)c1cc(Cl)c(N)cc1OC [metoclopramide]
gastric discharge (in words) (gastric discharge): possesses this property

CCC1C2Cc3ccc(O)cc3C1(CC)CCN2Cc1ccoc1 (single isomer, unassigned) [MR 2266]
inhibition of the gastric discharge effect of the product of the invention by the antagonist (in words) ([2]; intravenous antagonist): inhibited | inhibition of the gastric discharge effect of kappa agonists (in words) [3]: inhibited

CN1c2ccccc2C(c2ccccc2F)=NCC1CNC(=O)c1ccsc1 (stereo not shown) [Tifluadom]
gastric discharge after oral administration (in words) ([3]; po): increased gastric discharge; also recorded: modify the gastric discharge by their local action

COc1ccc(C(C)(COCc2ccc(Cl)cc2)N(C)C)cc1 (racemic) [Ex. 13 of U.S. Pat. No. 4,301,163, (+/-) 1-(p-chlorobenzyloxymethyl)-1-(p-methoxyphenyl)N,N-dimethyl-n-ethylamine]
IC50 (kappa receptor): 0.9 µM | % analgesia ([1]; 50 mg/kg, orally, mice): 27.9% | IC50 (delta receptor): 4.39 µM | mu receptor affinity (in words) (mu receptor; [7]): just as, if not more active | IC50 (mu receptor; [8]): 0.25 µM

CN1CC[C@]23c4c5ccc(O)c4O[C@H]2[C@@H](O)C=C[C@H]3[C@H]1C5 [Morphine]
antispasmodic activity (in words) (duodenum of the rat; barium chloride, duodenum of the rat, in vitro): inactive; also recorded: inactive at a concentration of more than 5 times greater than that of the product of the invention

CCC(COCc1cc(OC)c(OC)c(OC)c1)(c1ccccc1)N(C)C (single isomer, unassigned; (+)) [(+) Enantiomer, (+) 1-[(3,4,5-trimethoxy)benzyloxymethyl]-1-phenyl-N,N-dimethyl-n-propylamine]
Variation in % of gastric evacuation of solids, with MR 2266 ([2]; 0.25 mg/kg oral + MR 2266 0.1 mg per kg intravenous): +14% | Variation in % of gastric evacuation of solids, with naloxone ([2]; 0.25 mg/kg oral + naloxone 0.1 mg per kg intravenous): +5% | Variation in % of gastric evacuation of solids ([2]; 0.25 mg/kg): +110% | effect on gastric discharge of solids (in words) ([2]; listed as compound of the invention): increased discharge of solids in dogs | effect on gastric discharge of solids (in words) ([2]; listed as product of the invention): doubles the gastric evacuation of the solids; also recorded: clearly shows an activity which encourages gastric discharge of solids in dogs | receptor binding affinity to mu, delta and kappa (in words) [4]: shows a receptor binding affinity to the receptors mu, delta and kappa; also recorded: shows an "in vitro" affinity with the opiate receptors mu, delta and kappa; also recorded: showing an affinity to the three receptors studied, with a non-negligible intensity | IC50 (kappa receptor): 0.232 µM | % analgesia ([1]; mouse, in vivo): 17.6% | times less analgesic than the compound of Example 12 of the U.S. Patent ([1]; mouse, in vivo): ~5 times | times less analgesic than the trimebutine ([1]; mouse, in vivo): ~3 times | analgesic effect (in words) ([1]; mouse, in vivo, po): virtually without any analgesic effect; also recorded: does not have "in vivo", as one would expect it, a central analgesic activity; also recorded: very little analgesic effect | IC50 (delta receptor): 0.54 µM | LD50 at 336 h [5]: 407 mg/kg | toxicity relative to the levorotatory antipode (in words) (mice): about half as toxic | IC50 (mu receptor; [8]): 0.196 µM | antispasmodic activity (in words) (duodenum of the rat): activity slightly above that of papaverine; also recorded: possesses an antispasmodic activity | IC50 (duodenum of the rat; read-out: molar concentration inhibiting 50% of the amplitude of spasms caused by barium chloride): 17 µM

CCC(COCc1ccc(OC)c(OC)c1)(c1ccccc1)N(C)C (racemic) [Ex. 1 of U.S. Pat. No. 4,301,163, (+/-)1-[(3,4-dimethoxy)benzyloxymethyl]-1-phenyl-N,N-dimethyl-n-propylamine]
IC50 (kappa receptor): 1.11 µM | IC50 (delta receptor): 7.8 µM | IC50 (mu receptor; [8]): 1.11 µM

CCC(COC(=O)c1cc(OC)c(OC)c(OC)c1)(c1ccccc1)N(C)C (racemic) [Trimebutine, (+/-)-2-dimethylamino-2-phenyl-n-butyl 3,4,5-trimethoxybenzoate]
Variation in % of gastric evacuation of solids ([2]; 5 mg/kg): -4% | IC50 (kappa receptor): 1.46 µM | % analgesia ([1]; mouse, in vivo): 24.3% | % analgesia, corrected for racemic compound (multiplied by two) ([1]; mouse, in vivo): 48.6% | IC50 (delta receptor): 1.75 µM | mu receptor affinity (in words) (mu receptor): just as, if not more active | IC50 (mu receptor): 0.146 µM

CCC(COCc1cc(OC)c(OC)c(OC)c1)(c1ccccc1)N(C)C (single isomer, unassigned) [D-(-) tartaric acid addition salt, (+) 1-[(3,4,5-trimethoxy)-benzyloxymethyl]-1-phenyl-N-N-dimethyl-n-propylamineD-(-)-tartrate]
hygroscopicity (in words) [6]: without being hygroscopic | physico-chemical stability (in words) [6]: physico-chemical stability necessary for its use | solubility in water (in words) [6]: soluble in water

CCC(COCc1cc(OC)c(OC)c(OC)c1)(c1ccccc1)N(C)C (single isomer, unassigned; (-)) [(-) Enantiomer, (-) 1-[(3,4,5-trimethoxy)benzyloxymethyl]-1-phenyl-N,N-dimethyl-n-propylamine]
Variation in % of gastric evacuation of solids ([2]; 0.25 mg/kg): +26% | effect on gastric discharge of solids (in words) ([2]; listed as levorotatory enantiomer): four times less significant | IC50 (kappa receptor): 2.63 µM | IC50 (delta receptor): 12.3 µM | LD50 (mice; fourteen days, 20160 min): 255 mg/kg | IC50 (mu receptor; [8]): 0.58 µM

CCC(COCc1cc(OC)c(OC)c(OC)c1)(NC)c1ccccc1 (racemic) [Ex. 12 of U.S. Pat. No. 4,301,163]
IC50 (kappa receptor): 2.28 µM | % analgesia ([1]; 50 mg/kg, orally, mice): 44.0% | % analgesia, corrected for racemic compound (multiplied by two) ([1]; 50 mg/kg, orally, mice, racemate correction): 88.0% | IC50 (delta receptor): 2.25 µM | mu receptor affinity (in words) (mu receptor; [7]): just as, if not more active | IC50 (mu receptor; [8]): 0.36 µM

COc1ccc(Cc2nccc3cc(OC)c(OC)cc23)cc1OC [Papaverine]
IC50 (duodenum of the rat; read-out: IC50, inhibition of 50% of the amplitude of contractions): 27.4 µM
